# Source: paper PMC9268552, “Synthesis of Pyrimidine Conjugates with 4-(6-Amino-hexanoyl)-7,8-difluoro-3,4-dihydro-3-methyl-2H-[1,4]benzoxazine and Evaluation of Their Antiviral Activity” (Molecules, 2022)
# Values joined by “and” are separate entries in the source; they are usually repeats but may differ in a detail not shown here. Identical values can stand only once. Like-named read-outs stand apart in the source and are kept apart here.
# Key:
# [1] = test system: influenza virus A/Puerto Rico/8/34 (H1N1); conditions: influenza A/Puerto Rico/8/34 (H1N1); MDCK cells
# in vitro = conditions: dog
# [2] = Cytotoxicity in Vero E6 cells (Trypan blue exclusion assay); conditions: African green monkey
# Description: (§1) The anti-herpesvirus activity of the synthesized compounds 5a–e was studied against the reference strain HSV-1/L2 and the acyclovir-resistant strain HSV-1/L2/R in the Vero E6 cells (Table 1) by suppressing the virus-induced cytopathogenic effect (CPE) as described previously. Acyclovir, Foscarnet (sodium phosphonoformate hexahydrate), a drug of choice in clinical practice in case of inefficiency of acyclovir and related compounds, including cases of drug resistance, and Ribavirin, were used as reference drugs. To assess the cytotoxicity of the studied compounds, the percentage of viable and non-viable cells was determined using Trypan blue exclusion assay.
# [3] = test system: influenza virus A/Puerto Rico/8/34 (H1N1); experiment: organism not typed; conditions: MDCK, read-out: IC50 (50% inhibition of virus-induced CPE)
# HSV-1/L2/R [4] = experiment: microbe, parasite or virus in culture; conditions: for SI (CC50/IC50): HSV-1/L2/R (acyclovir-resistant), Vero E6 cells; for IC50: Human alphaherpesvirus 1, Vero C1008, read-out: IC50 (50% inhibition of virus-induced CPE)
# Description: as §1
# HSV-1/L2 [5] = experiment: Suppression of virus-induced cytopathogenic effect (CPE), reference strain HSV-1/L2 in Vero E6 cells; conditions: for IC50: Human alphaherpesvirus 1, Vero C1008, read-out: IC50 (50% inhibition of virus-induced CPE)
# Description: as §1
# MDCK cells = conditions: read-out: CC50 ± SD, data for comparison, ref [31]; cited from earlier work
# [6] = test system: influenza virus A/Puerto Rico/8/34 (H1N1); conditions: influenza A/Puerto Rico/8/34 (H1N1), MDCK cells, data for comparison, ref [31], cited from earlier work
# HSV-1/L2/R [7] = conditions: HSV-1/L2/R (acyclovir-resistant); Vero E6 cells; data for comparison; ref [27]; cited from earlier work
# HSV-1/L2 [8] = conditions: cited from earlier work
# Vero E6 cells = conditions: read-out: CC50 ± SD, data for comparison, ref [27]; cited from earlier work
SMILES,melting point,SI (CC50/IC50) [1],CC50 (in vitro),CC50 [2],IC50 [3],SI (CC50/IC50) (HSV-1/L2/R [4]),IC50 (HSV-1/L2/R [4]),"SI (CC50/IC50) (HSV-1/L2 [5]; HSV-1/L2, Vero E6 cells)",IC50 (HSV-1/L2 [5]),further results
"C[C@H]1COc2c(ccc(F)c2F)N1C(=O)CCCCCNc1ccnc(N)n1.O (hydrate or solvate) [(S)-5a, (S)-4-[6-(2-Aminopyrimidin-4-yl)aminohexanoyl]-7,8-difluoro-3,4-dihydro-3-methyl-2H-[1,4]benzoxazine Hydrate]",78 to 80 °C,,,,,,,,,
"C[C@@H]1COc2c(ccc(F)c2F)N1C(=O)CCCCCNc1ccnc(N)n1.C[C@@H]1COc2c(ccc(F)c2F)N1C(=O)CCCCCNc1ccnc(N)n1.O.O.O (racemic) (hydrate or solvate) [(RS)-5a, (RS)-4-[6-(2-Aminopyrimidin-4-yl)aminohexanoyl]-7,8-difluoro-3,4-dihydro-3-methyl-2H-[1,4]benzoxazine Sesquihydrate]",59 to 60 °C,,,,,,,,,
"C[C@@H]1COc2c(ccc(F)c2F)N1C(=O)CCCCCNc1ncnc2[nH]ccc12.C[C@@H]1COc2c(ccc(F)c2F)N1C(=O)CCCCCNc1ncnc2[nH]ccc12.O (racemic) (hydrate or solvate) [(RS)-5e, (RS)-7,8-Difluoro-3,4-dihydro-3-methyl-4-[6-(7H-pyrrolo[2,3-d]pyrimidin-4-yl)aminohexanoyl]-2H-[1,4]benzoxazine Hemihydrate]",86 to 88 °C,,,,,,,,,
"C[C@@H]1COc2c(ccc(F)c2F)N1C(=O)CCCCCNc1ccnc(N)n1.C[C@@H]1COc2c(ccc(F)c2F)N1C(=O)CCCCCNc1ccnc(N)n1.O.O.O (racemic) [(RS)-5a, (RS)-4-[6-(2-Aminopyrimidin-4-yl)aminohexanoyl]-7,8-difluoro-3,4-dihydro-3-methyl-2H-[1,4]benzoxazine Sesquihydrate]",,>1,11 ± 1 µM,151 ± 8.36 µM,8 ± 1 µM,8,18.6 µM,8 and 8.1,18.6 µM,
"CC1COc2c(ccc(F)c2F)N1C(=O)CCCCCNc1cc(Cl)nc(N)n1 (racemic) [(RS)-5b, (RS)-4-[6-(2-Amino-6-chloropyrimidin-4-yl)aminohexanoyl]-7,8-difluoro-3,4-dihydro-3-methyl-2H-[1,4]benzoxazine]",92 to 94 °C,<8,705 ± 42 µM,275 ± 4.3 µM,92 ± 11 µM,<4,73.4 µM,3.7,73.4 µM,
"CC1COc2c(ccc(F)c2F)N1C(=O)CCCCCNc1cc(Cl)ncn1 (racemic) [(RS)-5c, (RS)-4-[6-(6-Chloropyrimidin-4-yl)aminohexanoyl]-7,8-difluoro-3,4-dihydro-3-methyl-2H-[1,4]benzoxazine]",101 to 103 °C,1,9 ± 1 µM,> 304 µM,> 8 µM,2,152 µM,>2.0,148 µM,
"CC1COc2c(ccc(F)c2F)N1C(=O)CCCCCNc1ncccn1 (racemic) [(RS)-5d, (RS)-7,8-Difluoro-3,4-dihydro-3-methyl-4-[6-(pyrimidin-2-yl)aminohexanoyl]-2H-[1,4]benzoxazine]",106 to 108 °C,,257 ± 12 µM,505 ± 17.7 µM,> 88 µM,<2,297 µM,1.7,297 µM,
"C[C@@H]1COc2c(ccc(F)c2F)N1C(=O)CCCCCNc1ncnc2[nH]ccc12.C[C@@H]1COc2c(ccc(F)c2F)N1C(=O)CCCCCNc1ncnc2[nH]ccc12.O (racemic) [(RS)-5e, (RS)-7,8-Difluoro-3,4-dihydro-3-methyl-4-[6-(7H-pyrrolo[2,3-d]pyrimidin-4-yl)aminohexanoyl]-2H-[1,4]benzoxazine Hemihydrate]",,1,86 ± 4 µM,17.6 ± 0.85 µM,> 80 µM,<1,18.6 µM,<1,18.6 µM,
C[C@H]1COc2c(ccc(F)c2F)N1C(=O)CCCCCNc1ncnc2[nH]cnc12 [(S)-1],,,,,,,,,,"CC50 (MDCK cells): 24 ± 1 µM; SI (CC50/IC50) [6]: >2 ^1; IC50 ([6]; read-out: IC50 (50% inhibition of virus-induced CPE)): > 10 µM; SI (CC50/IC50) (HSV-1/L2/R [7]): 64 ^1; SI (CC50/IC50) (HSV-1/L2 [8]; Vero E6 cells, data for comparison, ref [27]): 64; IC50 (HSV-1/L2 [8]; read-out: IC50 (50% inhibition of virus-induced CPE), Vero E6 cells, data for comparison, ref [27]): 4.6 µM; CC50 (Vero E6 cells): 293 ± 15.5 µM"
"C[C@H]1COc2c(ccc(F)c2F)N1C(=O)CCCCCNc1ccnc(N)n1.O [(S)-5a, (S)-4-[6-(2-Aminopyrimidin-4-yl)aminohexanoyl]-7,8-difluoro-3,4-dihydro-3-methyl-2H-[1,4]benzoxazine Hydrate]",,>3,23 ± 1.2 µM,34.6 ± 0.88 µM,7 ± 1 µM,<4,9.27 µM,3.7,9.27 µM,
"C[C@H]1COc2c(ccc(F)c2F)N1C(=O)CCCCCNc1ncnc2[nH]ccc12 [(S)-5e, (3S)-7,8-Difluoro-3,4-dihydro-3-methyl-4-[6-(7H-pyrrolo[2,3-d]pyrimidin-4-yl)aminohexanoyl]-2H-[1,4]benzoxazine]",87 to 89 °C,<2,47 ± 3 µM,469 ± 10.8 µM,> 26 µM,6,75.2 µM,6 and 6.3,74.2 µM,
"Nc1nc2c(ncn2COCCO)c(=O)[nH]1 [Acyclovir, reference compound]",,,,> 444 µM,,1,> 444 µM,,1.73 µM,SI (CC50/IC50) (HSV-1/L2 [5]): >256
"O=C(O)P(=O)(O)O [Foscarnet, sodium phosphonoformate hexahydrate, reference compound]",,,,> 417 µM,,>4,104 µM,,104 µM,SI (CC50/IC50) (HSV-1/L2 [5]): >4
"CCC(CC)O[C@@H]1C=C(C(=O)O)C[C@H](N)[C@H]1NC(C)=O [Oseltamivir carboxylate, reference compound]",,>667,> 200 µM,,0.3 µM,,,,,
"NC(=O)c1ncn([C@@H]2O[C@H](CO)[C@@H](O)[C@H]2O)n1 [Ribavirin, reference compound]",,,,> 4100 µM,,>4,1020 µM,,1020 µM,SI (CC50/IC50) (HSV-1/L2 [5]): >4
